Source: patent US9695175B2, “Highly selective c-Met inhibitors as anticancer agents” (Crown Bioscience Inc. (Taiwan), priority 2012, dated 2017)

Legend:
[1] = target: c-Met protein in S114 cells (Homo sapiens (Human), UniProt P08581); test: S114 cell-based ELISA, phosphorylation of c-Met protein; details: 30 min compound incubation, phospho-c-Met ELISA
Method: Cell-Based ELISA [Method] Use ELISA to measure the phosphorylation of c-Met protein in […] cells [Instrument] ENVISION plate reader of PerKinElmer […] [Procedure] […] cells are cultured in DMEM medium (containing 10% FBS). When cells reach 80% confluency, they are collected by trypsinization and centrifugation at 800 rpm for 5 min. The cells are re-suspended in DMEM and adjusted to a density of 500,000 cells/mL. A 96-well plate is pretreated with a solution of Firbronectin in PBS (5 μg/mL) at 100 μL per well for 2 hr. The cell suspension is split into the 96-well culture plate at 100 uL per well and incubated (37° C., 5% CO2) overnight. The capture antibody is diluted with 1/2 Tris-ammonium bicarbonate buffer (1:1000) and transferred into a 96-well absorption plate (70 μL per well) at 4° C. overnight. The solution is discarded and the plate is washed with blocking buffer, followed by adding blocking buffer (150 μL per well), and kept at room temperature for 1 hr. The medium in the 96-well culture plate is discarded and the plate is washed with DMEM (without FBS). Then 80 μL of DMEM (without FBS) and 20 μL of test compound solution at various concentrations in DMEM (without FBS) are added. The culture plate is kept in a culture incubator for 30 min (37° C., 5% CO2). The cell culture medium is discarded and the culture plate is washed with PBS, followed by adding lysis buffer (50 μL per well) and incubated at 4° C. for 20 min. The solution in the absorption plate is discarded and the plate is washed with binding buffer. To each well of the absorption plate is added binding buffer (50 μL) and lysate (40 μL) from the above culture plate; then the plate is incubated at room temperature for 2 hours. The culture medium is discarded and the plate is washed twice with binding buffer, followed by adding a solution of 1st antibody (diluted with binding buffer 1:1000, 100 μL per well) and incubated at 37° C. for 1 hr. The solution is discarded and the plate is washed twice with binding buffer. Then a solution of 2nd antibody is added (100 μL per well) and incubated at 37° C. for another hour. The medium is discarded and the plate is washed twice with binding buffer and once with PBS. To each well, 100 μL of A.B.T.S solution is added and incubated at 37° C. for 30 min. Then OD405 is analyzed on an ENVISION plate reader. This assay has a Minimum Significant Ratio (MSA) of 2-3. [Samples] All exemplified compounds and Crizotinib as the positive control [Data Analysis] Background (no cell lysate): 0.084 • Max (no test compound): 0.517 [formula] [Software] Use CBIS data analysis software to calculate IC50 values

[2] = target: c-Met kinase (1038-1346AA) (Homo sapiens (Human), UniProt P08581); test: c-Met in vitro kinase assay (Lance Ultra ULight-TK); format: biochemical; details: c-Met kinase 12.5 nM, ATP 2.5 uM, 30° C.; read-out: c-Met Enzyme IC50
c-Met kinase (1038-1346AA), sequence (P08581 1038-1346): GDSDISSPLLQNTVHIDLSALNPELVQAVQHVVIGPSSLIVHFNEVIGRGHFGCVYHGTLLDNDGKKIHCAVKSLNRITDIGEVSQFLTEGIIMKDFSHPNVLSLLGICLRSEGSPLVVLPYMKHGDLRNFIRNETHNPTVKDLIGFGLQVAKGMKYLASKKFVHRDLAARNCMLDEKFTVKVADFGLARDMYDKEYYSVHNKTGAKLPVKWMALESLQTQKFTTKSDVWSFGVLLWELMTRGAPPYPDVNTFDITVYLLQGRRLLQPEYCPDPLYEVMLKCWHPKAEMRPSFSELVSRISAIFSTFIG
Method: c-Met In Vitro Kinase Assay [Method] Use Lance@Ultra Ulight™-TK test kits from PerKinElmer to evaluate the inhibition of c-Met kinase by the compounds [Instrument] ENVISION plate reader of PerKinElmer […] Then ATP (final concentration 2.5 uM) and kinase substrate (final concentration 50 nM) are added. […] After 1 hr, the plate is read at 615 nm and 665 nm. The ratio of […] at 665 nm and 615 nm is calculated and used for the data analysis as follows. This assay has a Minimum Significant Ratio (MSA) of 2-3. [Samples] All exampled compounds and Crizotinib as the positive control [Data Analysis] Background—the ratio of 665 nm/615 nm (no enzyme):0.003285 • Max—the ratio of 665 nm/615 nm (no test compound):0.075356 [formula] [Software] Use CBIS data analysis software to calculate IC50 values

c-Met protein in S114 cells, sequence (P08581 25-1390): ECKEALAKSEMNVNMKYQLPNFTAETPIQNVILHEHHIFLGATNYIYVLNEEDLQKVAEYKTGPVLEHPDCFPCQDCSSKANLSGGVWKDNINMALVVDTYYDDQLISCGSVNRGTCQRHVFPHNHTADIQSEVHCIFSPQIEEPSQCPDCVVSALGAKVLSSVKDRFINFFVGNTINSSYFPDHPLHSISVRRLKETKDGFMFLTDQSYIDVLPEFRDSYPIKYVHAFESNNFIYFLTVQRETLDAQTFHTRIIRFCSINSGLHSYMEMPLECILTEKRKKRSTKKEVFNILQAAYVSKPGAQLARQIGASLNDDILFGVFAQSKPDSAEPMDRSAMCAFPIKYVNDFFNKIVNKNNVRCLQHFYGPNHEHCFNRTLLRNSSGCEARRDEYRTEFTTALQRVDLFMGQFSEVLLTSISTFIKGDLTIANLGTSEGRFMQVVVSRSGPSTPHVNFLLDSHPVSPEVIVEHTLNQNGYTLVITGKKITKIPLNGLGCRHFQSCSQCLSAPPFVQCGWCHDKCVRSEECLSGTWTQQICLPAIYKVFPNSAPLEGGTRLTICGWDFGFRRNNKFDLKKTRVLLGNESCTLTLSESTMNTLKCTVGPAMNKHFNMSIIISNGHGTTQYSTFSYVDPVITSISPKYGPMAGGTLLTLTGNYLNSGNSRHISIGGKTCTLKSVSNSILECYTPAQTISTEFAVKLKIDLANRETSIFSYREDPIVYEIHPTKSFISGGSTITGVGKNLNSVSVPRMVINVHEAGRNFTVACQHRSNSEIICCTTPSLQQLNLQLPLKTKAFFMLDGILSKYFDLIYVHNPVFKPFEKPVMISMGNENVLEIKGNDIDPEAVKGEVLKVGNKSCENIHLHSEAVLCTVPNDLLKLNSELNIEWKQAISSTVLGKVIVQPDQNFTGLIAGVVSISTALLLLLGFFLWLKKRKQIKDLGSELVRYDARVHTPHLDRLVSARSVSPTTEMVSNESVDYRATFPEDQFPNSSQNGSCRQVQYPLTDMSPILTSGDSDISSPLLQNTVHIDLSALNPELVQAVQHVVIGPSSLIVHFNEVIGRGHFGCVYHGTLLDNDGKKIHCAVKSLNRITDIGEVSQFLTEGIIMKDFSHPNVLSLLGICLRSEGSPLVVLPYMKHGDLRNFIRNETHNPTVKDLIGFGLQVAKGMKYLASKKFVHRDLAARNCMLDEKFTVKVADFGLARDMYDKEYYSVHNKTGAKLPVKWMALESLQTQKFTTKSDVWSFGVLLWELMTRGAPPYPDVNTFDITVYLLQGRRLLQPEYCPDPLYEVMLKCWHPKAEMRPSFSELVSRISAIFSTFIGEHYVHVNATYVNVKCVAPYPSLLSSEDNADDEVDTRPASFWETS

## Cn1cc2c(F)c(C(F)(F)c3nnc4ccc(-c5ccc(NC(=O)C6CC6)c(F)c5)nn34)ccc2n1 [Example 7]
[1]
  IC50: 49.6 nM
[2]
  IC50: 76.4 nM

## Cn1cc2cc(C(F)(F)c3nnc4ccc(-c5cncc(F)c5)nn34)c(F)cc2n1 [Example 33]
[1]
  IC50: 210 nM
[2]
  IC50: 242 nM

## Cc1cncc(-c2ccc3nnc(C(F)(F)c4cc5cn(C)nc5cc4F)n3n2)c1 [Example 32]
[1]
  IC50: 37.7 nM
[2]
  IC50: 109 nM
